Data as given in patent publication US8796241B2, “Therapy of tumors and infectious agents deficient in methylthioadenosine phosphorylase” (priority 2007, dated 2014).
Marks after values point to notes of the source that are not given here.

Assays:
[1] = test system: MTAP(−) A549 cells; assay: Clonogenic assay of A549 cells; type: cell-based, human
Method: (§1) Cell viability of adherent cell types was measured by clonogenic assay as follows: after releasing cells with trypsin and removing a portion of the cell suspension for Coulter counting, the remainder of the cell suspension was plated in serial dilutions in growth medium, without drugs. After a period sufficient for clones to reach a size visible by eye (usually 2 to 3 weeks), clones were stained with crystal violet in a saline/methanol solution. Dishes that had fewer than 100 clones were deemed suitable for counting. From these counts and from the dilution factors, the approximate number of viable cells, in the parent treatment dishes, was calculated. […] In clonogenic assays, clone size was often variable, especially after treatment with toxic drugs. Moreover, many of the very small clones may have arisen from cells detached during the weeks of incubation. […] Cloning efficiency for healthy, growing A549 cells was about 50%; for HF cells, efficiency was quite variable, ranging from 25 to 75% (perhaps because the HF cell stock varied, from experiment to experiment, in passage number).
A549 cells were incubated for 4 days with additions shown below, and viable cells measured by clonogenic assay. (Results shown are approximate; see Methods) Cell count in dish at start: 40,000
(§2) • MTAP(−) A549 lung tumor cell cultures were treated with F-Ade, with or without MTA, 5′-dAdo, or adenine (Ade), for three days. Coulter counts of cells, and viable cells as determined by clonogenic assay, are shown below: • Initial cell number: 10,340*
• A549 cell cultures were treated with DAP, with or without 5′-dAdo or adenine, for three days. After trypsinization, one-fourth of the cell suspension was counted, and raw data is shown below, with duplicate counts for each sample. The cell suspension was also serially diluted for clonogenic assay. • Counts at start of experiment: Dish one: 36,480; 39,160; Dish two: 52,680; 51,360. • Initial viable cells by clonogenic assay: 180,000.
• Cell cultures were treated with MTX or alanosine for one day. DAP was then added and 3 days later, cells were trypsinized and serially diluted for clonogenic assay. Results are shown below: • Initial viable cells: 146,000
• A549 cells were plated, and after they had adhered to the substrate, medium was changed to methionine-free medium with 10% dialyzed serum. L-ethionine (Eth) and MTA were added, and after 4 days, cell cultures were trypsinized and serially diluted for clonogenic assay. • Initial number of viable cells: 160,000*
• A549 cultures were treated with 6-thioguanine (TG) or 2,6,diaminopurine (DAP), or both, for 3 days. • Initial viable cells: 275,000 • After 3 days: […]

[2] = test system: human fibroblasts (HF cells), MTAP-positive; assay: Coculture of HF and MCF7 cells treated with DAP with or without MTA, photographs; type: cell-based
Method: (§3) FIGS. 6A and 6B present photographs of experiments examining the efficacy of the selective therapeutic method of the invention in two human-tissue coculture experiments. In both experiments human fibroblasts (HF cells), which are MTAP-positive, and MCF7 cells, an MTAP-negative human breast adenocarcinoma cell line, were seeded together into culture dishes, in DME supplemented with 10% dialyzed fetal bovine serum.
(§4) In the experiment of FIG. 6A the cell coculture was treated for four days with 100 μM DAP and 25 μM MTA. At the end of this period, some of the culture dishes were fixed, to be photographed. Other dishes were trypsinized and diluted five-fold into fresh (drug-free) medium with adenine added (to stop any further toxic action of DAP) and allowed to grow for two more, or five more, days, before being fixed for photography.
(§5) In the experiment of FIG. 6B cell cocultures were treated for three days with 200 μM DAP alone or with the addition of 50 μM MTA, or with no drugs at all. As shown in the photo of the dish without any drugs added to the culture medium, both HF and MCF7 grew very well; many large masses of MCF7 cells are visible, with the elongated HF cells interspersed, confluently, between the MCF7 masses.

[3] = test system: MCF7 cells, an MTAP-negative human breast adenocarcinoma cell line; assay: as above; type: cell-based
Method: as §3, §4, §5

[4] = test system: human and mouse tumor cells; assay: Killing of tumor cells by adenine analogs (Applicants' findings, no method given); type: cell-based
[5] = test system: MTAP(+) HF cells; assay: Coulter counts of HF cell cultures; type: cell-based, human; settings: for Coulter counts: x56 = cells/dish
Method: For adherent cell types (e.g., HF, A549, MCF7) cells were plated in 60 mm -diameter plastic tissue culture dishes and incubated at 37° C. in a humidified 5% CO2 atmosphere, in Dulbecco's Modified Eagle's Medium (DME) with 10% fetal bovine serum (FBS). At the start of an experiment, medium was replaced with DME and 10% dialyzed FBS.
(§6) For adherent cell types, cell numbers were determined periodically by releasing cells with trypsin (dead cells that were no longer adherent were removed by two prior rinses of the culture dish) and placing a portion of the resulting cell suspension in a Coulter counter. For cell types that grow in suspension, portions of the culture were counted directly, without trypsin treatment. Coulter counts of cells from each dish were done twice, and almost all experiments were done in duplicate. In the presentation of results, raw data for Coulter counts is given in some cases, while in others, counts have been rounded off to two to three significant figures. (Background Coulter counts—i.e., counts of diluent alone—were insignificant.)
Cell cultures were treated with MeP, with or without 5′-dAdo or MTA, for 4 days. The cell cultures were then changed to fresh medium, with the addition of 30 μM Ade to inhibit further action of the analog. Two days later cultures were trypsinized and a portion of the suspension was counted.
• A. F-Ade was added to cultures of HF cells, with varying amounts of 5′-dAdo. After 3 days, cell numbers were counted. • Initial cell count: 1,100 • After three days:
• Cultures of human fibroblasts were treated with DAP, 5′-dAdo, MTA, adenine, or MTX. Thymidine (15 μM) was added to all cultures. • Initial count was: 1807 • Counts, as raw data, after 3 days of incubation, are shown below: […]
• Human fibroblasts in culture were treated with 6-thioguanine (TG), 2,6-diaminopurine (DAP), or 5′-dAdo for 3 days. After trypsinization, cell numbers were counted. • Initial cell number: 296,000

[6] = test system: MTAP(+) ML-1 cells; assay: Coulter counts of ML-1 suspension cultures; type: cell-based
Method: For cell types that grow in suspension (e.g., ML-1, HL-60, K-562) medium was RPMI-1640 with 10% FBS (undialyzed).
as §6
For cells that grow in suspension, the effect of treatments was assessed solely by changes in Coulter count.
• ML-1 cells were incubated in RPMI 1640 with 10% FBS with 5′-dAdo (60 μM) for 6 hours. 5-fluorouracil (FU), 6-thioguanine (TG), or 2,6-diaminopurine (DAP) were then added, and after 2 additional days, 0.5 ml was taken for Coulter counts. Initial Coulter count/ml: 308,000

[7] = test system: MTAP(−) A549-ouaR cells; assay: Coculture of HF and A549-ouaR cells, clonogenic assay; type: cell-based, human
Method: as §1
(§7) HF and A549-ouaR (a ouabain-resistant derivative of the human lung carcinoma cell line A549, isolated by Applicants) cells were cultured together in a medium containing DAP, and with or without 5′-dAdo. After 3 days, cultures were trypsinized and serially diluted into fresh medium for clonogenic assays. Some dishes were treated with 0.1 μM ouabain to kill HF cells and permit easy visualization of surviving A549-ouaR clones. Initial viable cells: HF cells, 11,000; A549-ouaR cells, 40,000.

[8] = test system: MTAP(+) HF cells; assay: as above; type: cell-based, human
Method: as §1, §7

[9] = test system: MTAP(−) A549 cells; assay: Coulter counts of A549 cell cultures; type: cell-based, human; settings: three days, MTA, 5′-dAdo or Ade 40 μM where present, initial 10,340, x4 = cells per dish
Method: as §6, §2
• A549 cell cultures were treated with DAP, with or without 5′-dAdo or adenine, for three days. After trypsinization, one-fourth of the cell suspension was counted, and raw data is shown below, with duplicate counts for each sample. […]

[10] = test system: MTAP(+) HF cells; assay: Clonogenic assay of HF cells; type: cell-based, human
Method: as §1
• B. F-Ade was added to cultures of MTAP(+) HF cells, with or without 5′-dAdo, for 3 days. Cultures were then trypsinized and serially diluted for clonogenic assay. • Initial number of viable cells per dish: 45,000 • Viable cells after 3 days shown below:
• HF cells were plated, and after they had adhered to the substrate, medium was changed to methionine-free medium, with 10% dialyzed serum. • Initial Coulter count: 73,000*; viable cells: 88,000 • After 3 days in methionine-free medium, with or without L-ethionine (Eth) or MTA: […]

[11] = a few days of treatment with 100-200 μM DAP
[12] = three days, DAP 200 μM, MTA 50 μM where present

Nc1nc(N)c2[nH]cnc2n1 [DAP, 2,6-diaminopurine]
toxicity to MTAP(−) A549 cells ([1]; 100 μM DAP): highly toxic
Viable Cells ([1]; 3 days, TG 40 μM, DAP 50 μM where present, initial viable cells 275,000): 12,000
Viable Cells ([1]; MTX 1 μM or alanosine 3 μM for one day, then DAP 40 μM, 3 days (where present), initial viable cells 146,000): 59,000
Viable Cells ([1]; three days, DAP 100 μM, 5′-dAdo or Ade 30 μM where present, initial viable cells 180,000): 0
killing of HF cells in coculture [2, 11]: effectively killed
HF cells in coculture (photographs, FIG. 6B) [2, 12]: very few, if any, HF or MCF7 cells have survived
killing of MCF7 cells in coculture [3, 11]: effectively killed
MCF7 cells in coculture (photographs, FIG. 6B) [3, 12]: very few, if any, HF or MCF7 cells have survived
killing of human and mouse tumor cells [4]: very rapid and potent killing
Coulter counts ([5]; 3 days, MTX 10 μM, DAP 100 μM, 5′-dAdo, MTA or Ade 15 μM where present, thymidine 15 μM in all cultures, initial count 1807): 2,483
Increase in cells/dish ([5]; 3 days, TG 40 μM, DAP 50 μM, 5′-dAdo 60 μM where present, initial cell number 296,000): 254,000 cells/dish
inhibition of MTAP(+) HF cells ([5]; Example 8): inhibited
inhibition of HF cell growth ([5]; Example 15): inhibited
Increase in cell number/ml, No 5′-dAdo ([6]; 2 days, FU 3 μM, TG 20 μM, DAP 50 μM where present, initial Coulter count/ml 308,000): 220,000 /ml
inhibition of growth of MTAP(+) ML-1 cells ([6]; Example 14): inhibited growth
killing of A549-ouaR cells in coculture ([7]; DAP alone): effectively killed
Viable A549-ouaR ([7]; coculture, 3 days, DAP 125 μM, 5′-dAdo 7.5 μM where present, initial viable A549-ouaR cells 40,000): 0
killing of HF cells in coculture ([8]; DAP alone): effectively killed
Viable HF ([8]; coculture, 3 days, DAP 125 μM, 5′-dAdo 7.5 μM where present, initial viable HF cells 11,000): 240

Nc1nc(F)nc2nc[nH]c12 [F-Ade, 2-fluoroadenine]
toxicity to A549 tumor cells, clonogenic assay ([1]; 1 to 2 μM F-Ade): highly toxic
Viable Cells ([1]; three days, F-Ade 1 μM, MTA, 5′-dAdo or Ade 40 μM where present): 64
Viable Cells ([1]; three days, F-Ade 2 μM, MTA, 5′-dAdo or Ade 40 μM where present): 0
Coulter counts ([9]; F-Ade 1 μM): 7,980
Coulter counts ([9]; F-Ade 2 μM): 7,890
survival of HF cells ([10]; 2 μM F-Ade, after 3 days): no HF cells survive
Viable Cells ([10]; 3 days, F-Ade 2 μM, 5′-dAdo 30 μM where present, initial viable cells per dish 45,000): 0*
killing of human and mouse tumor cells [4]: very rapid and potent killing
killing of human tumor cells ([4]; very short-term assays of 6 to 12 hours): effectively kill
Coulter counts ([5]; 3 days, F-Ade 0.3 μM, 5′-dAdo 7.5 μM where present, initial count 1,100): 1478
Coulter counts ([5]; 3 days, F-Ade 0.6 μM, 5′-dAdo 7.5 μM where present, initial count 1,100): 976
inhibition of HF cell growth ([5]; increasing concentrations of F-Ade): increasing inhibition
